Tests used:
[1] = test system: mdx lumbrical (LMB) muscles; test: Isometric contraction protocol (20 contractions) inducing force deficit in isolated lumbrical muscles in vitro; design: species or system mouse
Description: Specific-pathogen-free male mdx mice (C57BL/10ScSn-mdx stock #001801) 2-3 months of age and wild type (WT) C57BL/10 mice 2-5 months of age were obtained from the Jackson Laboratory (Bar Harbor, Me.). Mice were housed in a specific-pathogen-free barrier facility. All experimental procedures were in accordance with the Guide for the Care and Use of Laboratory Animals [DHHS Publication No. 85-23 (NIH), Revised 1985, Office of Science and Health Reports, Bethesda, Md. 20892].
Mice were anesthetized with an intraperitoneal injection of Avertin (tribromoethanol 400 mg/kg). Supplemental doses of Avertin were administered as required to keep the mouse unresponsive to tactile stimuli. The front paws of the mouse were severed and the LMB muscles dissected free from the second digit. The LMB muscles were selected for their extremely small size that ensured all fibres were accessible to externally applied compounds. Based on physical dimensions, LMB muscle mass was estimated to be approximately 0.7 mg. Dissections were performed in a chilled bathing solution, composition in mM: 137 NaCl, 11.9 NaHCO3, 5.0 KCl, 1.8 CaCl2, 0.5 MgCl2, 0.4 NaH2PO4. The isolated LMB muscle was mounted horizontally in a custom-fabricated chamber with the distal tendon attached to a force transducer (Aurora Scientific, Inc., modified Model 400A) and the proximal tendon attached to a servomotor (Aurora Scientific, Inc., Model 318B) by ties composed of 10-0 monofilament nylon suture. Bath temperature was maintained at 25° C. and the chamber was perfused continuously with Tyrode solution (composition in mM: 121 NaCl, 24 NaHCO3, 5.0 KCl, 1.8 CaCl2, 0.5 MgCl2, 0.4 NaH2PO4) maintained at pH 7.3 by bubbling with a 95%/5% O2/CO2 mixture.
Muscles were stimulated electrically by current passed between two platinum electrodes. […] Optimum length (Lo) of the muscle was determined by adjusting its length until maximum twitch force was attained. […]
Data are presented as a mean value±SE. […] When ANOVA was used and significance detected, the Student-Newman-Keuls post hoc comparison was used to assess pairwise differences.

WT muscles = conditions: P188 1 mM or streptomycin 200 μM
Description: LMB muscles from WT mice, termed WT muscles, were divided into two groups. One group was exposed to normal Tyrode solution and the other group to a calcium-free Tyrode solution. […] For all treatments, muscles were allowed to incubate in the chamber for 15 minutes prior to commencement of the contraction protocol. […] For calcium-free experiments, CaCl2 was omitted from the Tyrode solution and MgCl2 was increased to 2.3 mM to maintain the concentration of divalent ions.

SMILES: [H]/N=C(/N)N[C@H]1[C@H](O)[C@@H](O)[C@H](O[C@@H]2O[C@@H](C)[C@](O)(C=O)[C@H]2O[C@@H]2O[C@@H](CO)[C@H](O)[C@@H](O)[C@@H]2NC)[C@@H](N/C(N)=N\[H])[C@@H]1O [streptomycin]
- influence on absolute Po ([1]; mdx LMB muscles, P188 1 mM, streptomycin 200 μM): did not influence
- force generated at the end of the contraction protocol (post-protocol normalized Po) ([1]; mdx LMB muscles, P188 1 mM, streptomycin 200 μM in Tyrode, 15 min incubation, untreated mdx 69% of Po): 84 % of Po
- contraction-induced force deficit (effect in words) ([1]; whole mdx skeletal muscle): equally effective in reducing the contraction-induced force deficit
- toxicity to the muscle (WT muscles): not toxic
